3 compounds from patent publication EP0198508A1, “L-phosphoserine salts, a process for the preparation thereof and pharmaceutical compositions containing them” (LABORATORI PROPHIN S.p.A., priority 1985, dated 1986) can be followed below.

Experiment [1] concerns Wistar rats. The experiment in a line: Shuttle box test: acquirement of conditioned avoidance responses (CARs). Format: in vivo. As to conditions: for CARs: mean + ES; for effect on number of conditioned responses and percentage of learners (in words): young and elderly rats, PR 156 tested only on young rats. The protocol:
(§1) Male young and elderly Wistar rats, weighing respectively […] and 580 g, were used.
(§2) The test compounds, dissolved in physiological saline, were administered orally to young and elderly animals, at doses of 5, lO and 20 mg/kg. Phosphoserine dissolved in physiological saline was administered at equimolecular doses (1.8, 3.6 and 7.2 mg/kg). The control animals were administered with the sole vehicle. The administrations were carried out once a day during 20 days, the last administration being effected 1 hour before the tests.
The following behavioral tests were carried out: • 1) Shuttle box test: to evaluate the acquirement of conditioned avoidance responses (CARs).

Experiment [2] relates to Wistar rats. The experiment in a line: Dark box test: effect on memory capability. As to conditions: for LATENCY (seconds): averages; for effect on acquirement of avoidance responses (in words): summary of Table 2, young and elderly rats. It counts as in vivo. The protocol:
as §1, §2
2. Dark box test: to further evaluate the effect on memory capability of the animals.

The test system of a further experiment is elderly rats. Description: Despair test: antidepressant activity. It counts as in vivo, Wistar rats. Conditions: for DURATION OF STILLNESS: Elderly rats, mean + SEM; for effect on stillness (in words): summary in text of Table 3, elderly rats. The protocol: as §1, §2
3. Despair test: to estimate the antidepressant activity on the elderly rats.

The mark [3] stands for this setting: Young rats, 5 mg/kg orally once a day during 20 days, 5 mg/kg.
The mark [4] stands for this setting: Young rats, 10 mg/kg orally once a day during 20 days, 10 mg/kg.
Setting [5] is: Elderly rats, 5 mg/kg orally once a day during 20 days.
The mark [6] stands for this setting: Elderly rats, 10 mg/kg orally once a day during 20 days.
Where [7] appears, read: Elderly rats, 20 mg/kg orally once a day during 20 days.
[8] abbreviates: Young rats, 20 mg/kg orally once a day during 20 days.
Where [9] appears, read: Elderly rats, 1.8 mg/kg orally once a day during 20 days.
The mark [10] stands for this setting: Elderly rats, 3.6 mg/kg orally once a day during 20 days.
The mark [11] stands for this setting: Elderly rats, 7.2 mg/kg orally once a day during 20 days.
Where [12] appears, read: Young rats, 1.8 mg/kg orally once a day during 20 days.
[13] abbreviates: Young rats, 3.6 mg/kg orally once a day during 20 days.
[14] abbreviates: Young rats, 7.2 mg/kg orally once a day during 20 days.

The structures appear in SMILES notation. Where a name gives a salt, the structure may show the parent alone. Marks after values point to notes of the source that are not given here.

Regarding `N[C@@H](COP(=O)(O)O)C(=O)O` [PR 156, L-Phosphoserine salt with L-Arginine 1:2], in the experiment on Wistar rats [1] (setting [3]), the “LEARNERS (%)” value was found to be 100.0% and the CARs is given as 23.4 + 1.9**. Moreover, in the experiment with Wistar rats [1] (setting [4]), the “LEARNERS (%)” value is 100.0% and the CARs is 24.0 + 1.8**. In the experiment on Wistar rats [1], the “effect on number of conditioned responses and percentage of learners (in words)” value is on record as “proved also to be effective”.
As for `N[C@@H](COP(=O)(O)O)C(=O)O` [PR 157, L-Phosphoserine salt with L-Arginine and L-Lysine], the “LEARNERS (%)” value in the experiment on Wistar rats [1] (setting [5]) was 25.0%; in the experiment with Wistar rats [1] (setting [6]), 50.0** %; with Wistar rats [1] (setting [7]), 50.0** %; in the experiment on Wistar rats [1] (setting [3]), 50.0%; with Wistar rats [1] (setting [4]), 75.0** %; in the experiment on Wistar rats [1] (setting [8]), 100.0** %. Further, the CARs in the experiment on Wistar rats [1] (setting [5]) is recorded as 7.9 + 0.3*; with Wistar rats [1] (setting [6]), 11.5 + 0.3*; with Wistar rats [1] (setting [7]) it was 18.6 + 0.4*; in the experiment on Wistar rats [1] (setting [3]) it was 19.4 + 0.4*; with Wistar rats [1] (setting [4]) it was 22.2 + 1.4*; with Wistar rats [1] (setting [8]), 24.4 + 1.4*. Further, in the experiment with Wistar rats [1], the “effect on number of conditioned responses and percentage of learners (in words)” value was “caused an increase in the number of conditioned responses as well as in the percentage of learners, both in young and elderly animals”. In addition, the “LATENCY (seconds)” value in the experiment on Wistar rats [2] (setting [5]) was “(12) 46.0* seconds”; with Wistar rats [2] (setting [6]), “(12) 79.4* seconds”; in the experiment on Wistar rats [2] (setting [7]), “(12) 82.0* seconds”; with Wistar rats [2] (Young rats, 5 mg/kg orally once a day during 20 days), “(12) 112.3* seconds”; with Wistar rats [2] (Young rats, 10 mg/kg orally once a day during 20 days) it was “(12) 161.5* seconds”; in the experiment with Wistar rats [2] (setting [8]), “(12) 265.1* seconds”. Moreover, the “effect on acquirement of avoidance responses (in words)” value in the experiment on Wistar rats [2] is “caused a dose-related improvement in the acquirement of avoidance responses both in young and elderly animals”. Further, the “DURATION OF STILLNESS” value in the experiment with elderly rats (5 mg/kg orally once a day during 20 days) is reported as 280.2 + 20.3*; in the experiment on elderly rats (10 mg/kg orally once a day during 20 days), 263.1 + 33.4*; in the experiment with elderly rats (20 mg/kg orally once a day during 20 days), 236.7 + 28.9*. The “effect on stillness (in words)” value in the experiment on elderly rats is given as “showed a dose-related reduction in the stillness of the elderly rats”.
Consider `N[C@@H](COP(=O)(O)O)C(=O)O` [Phosphoserine], for which the “LEARNERS (%)” value is 25.0% in the experiment with Wistar rats [1] (setting [9]); 37.5* % in the experiment with Wistar rats [1] (setting [10]); 37.5** % in the experiment on Wistar rats [1] (setting [11]); 50.0% in the experiment with Wistar rats [1] (setting [12]); 50.0% in the experiment on Wistar rats [1] (setting [13]); 75.0% with Wistar rats [1] (setting [14]). The CARs is on record as 5.9 + 0.4* with Wistar rats [1] (setting [9]); 6.2 + 0.5* in the experiment with Wistar rats [1] (setting [10]); 9.2 + 0.6* with Wistar rats [1] (setting [11]); 16.1 + 0.5 in the experiment with Wistar rats [1] (setting [12]); 17.6 + 0.5 in the experiment with Wistar rats [1] (setting [13]); 17.2 + 0.6 with Wistar rats [1] (setting [14]). The “effect on number of conditioned responses and percentage of learners (in words)” value in the experiment with Wistar rats [1] is recorded as “caused similar effects on the elderly animals only”. Also, the “LATENCY (seconds)” value is “(12) 34.8 seconds” in the experiment on Wistar rats [2] (setting [9]); “(12) 50.7* seconds” in the experiment with Wistar rats [2] (setting [10]); “(12) 65.0* seconds” with Wistar rats [2] (setting [11]); “(12) 97.5* seconds” with Wistar rats [2] (setting [12]); “(12) 110.2* seconds” with Wistar rats [2] (setting [13]); “(12) 186.0* seconds” in the experiment on Wistar rats [2] (setting [14]). Also, the “effect on acquirement of avoidance responses (in words)” value in the experiment on Wistar rats [2] is “proved to be effective only on the elderly animals”. Also, the “DURATION OF STILLNESS” value in the experiment with elderly rats (1.8 mg/kg orally once a day during 20 days) was 301.0 + 31.4*; in the experiment on elderly rats (3.6 mg/kg orally once a day during 20 days), 291.7 + 32.7*; in the experiment on elderly rats (7.2 mg/kg orally once a day during 20 days) it was 265.8 + 24.7*. Besides, the “effect on stillness (in words)” value with elderly rats is “showed a dose-related reduction in the stillness of the elderly rats”.
